We go through 2 compounds from patent publication US20220241437A1, “ATHER[…] AGENTS AND METHODS OF USING THE SAME” (THE GENERAL HOSPITAL CORPORATION, priority 2015, published 2022).

SMILES strings stand for the structures. Where two headings read alike, the source gives them in different places.

One may read the half-life as the time in which the quantity being followed falls by half.

For one series, the system named is atheroma. The series is described as follows: NIRF / multi-wavelength fluorescence reflectance imaging (FRI) of resected aortas in rabbit atherosclerosis model. Format: in vivo. To be noted: for co-localization in atherosclerotic zones by FRI: MB 1 mg/kg 24 hours and ICG 0.5 mg/kg 0.5 hours before imaging, rabbit m464. From the text: New Zealand white rabbits (3-4 kg, Charles River Laboratories, n=2) were fed a high cholesterol diet (0.3% total cholesterol, 5% peanut oil; Research Diets) and were subjected to an infrarenal abdominal aorta injury using a 3F Fogarty embolectomy balloon (Edwards Lifesciences). The 3F balloon was inserted percutaneously via the femoral artery, inflated to nominal pressure, and withdrawn under tension and repeated. After recovery from the injury, the rabbits were continued on the 0.3% high cholesterol diet, and their total serum cholesterol levels were routinely measured (Hemagen Diagnostics).
24 hours prior to atheroma imaging, 1 mg/kg concentration of MB in a phosphate buffer saline solution was administered to the rabbit subjects intravenously.
28 days after aortic injury and continuation on the high cholesterol diet, the rabbits were anesthetized and imaged using various imaging modalities. An aortic angiography (ARCADIS Varic C-arm fluoroscopy unit, Siemens) was performed on the rabbits with a manual contrast injection. After the angiography, an intravascular ultrasound (IVUS) was performed using a catheter (iLab, Boston Scientific). The IVUS catheter was used with an automated 0.5 mm/second pullback across the previously injured aortic region to assess plaque burden. Finally, the rabbit subjects underwent near-infrared fluorescence optical coherence tomography (NIRF-OCT) imaging.
Following multimodality imaging, the rabbits were euthanized, and their aortas were removed and placed in saline at 4° C. The freshly resected aortas were imaged using multi-wavelength fluorescence reflectance imaging (FRI) with fluorescein isothiocyanite (FITC) and MB having emission wavelengths of 535 nm and 700 nm, respectively. While using the FRI system (Kodak ImageStation 4000, Carestream Health), the excitation source used for triggering FITC's autofluorescence was focused around 470 nm with an exposure time of 4 seconds. MB's near-infrared fluorescence was triggered by excitation wavelengths around 630 nm for 64 seconds. […] The target-to-background ratios(TBRs) were calculated for each ROI as the mean plaque fluorescence divided by the background fluorescence measured in the adjacent normal vessel.
A concentration of 1 mg/kg MB in phosphate buffer saline solution was co-injected with a 0.5 mg/kg solution of indocyanine green (ICG) into the aorta of the rabbit subject, m464, 24 hours and 0.5 hours before imaging, respectively. Fluorescence reflectance imaging (FRI) was performed to evaluate uptake and distribution of MB and ICG. […]
The TBRs were calculated as the mean fluorescence divided by the background fluorescence of the adjacent normal aorta. […]

A further series relates to atherosclerotic lesions. Kind of series: Fluorescence microscopy, histology and RAM11 immunohistochemistry of aorta/vessel cross-sections. Format: in vivo, rabbit. How it is done:
A histology analysis for the aortas was then performed. The excised aortas were filled with an optimal cutting temperature compound and then snap frozen on dry ice. Using a cryostat (Leica CM3050 S), 8 μm sections of the aortas were obtained. The tissue sections were stained for hemotoxylin and eosin (H&E), Masson's Trichrome, and Oil Red 0 (ORO) histological imaging. Additionally, immunohistochemistry tests were performed for macrophages (RAM11; Dako).
Unstained tissue sections were imaged with a multi-wavelength fluorescence microscope (Nikon Eclipse 90i) for FITC and MB. FITC's autofluorescence emissions at 535 nm were excited with a 480 nm source, and MB's near-infrared fluorescent emissions at 700 nm were excited with a 630 nm Cy5.5 source.
The co-localization of MB and ICG found through FRI was also verified using high-resolution epifluorescence microscopy of fresh-frozen tissue cross-sections from the areas of interest outlined in the FRI results. […] Further, the MB binding was associated with cellular uptake when evaluating sections counterstained with a fluorescent nuclear stain.
Fluorescent microscopy (FM) was performed on a cross-section of the aorta of m464 in the fluorescein isothiocyanite (FITC) and Cy5 channels. […] The white areas represent the near-infrared fluorescence of MB under a Cy5.5 source. The grey areas represent the autofluorescence of FITC. There is little overlap between the MB and FITC areas, evidencing the unique uptake and binding profile for MB in atherosclerotic structures not targeted by other imaging agents. […] Again, the distinction between the areas of MB binding and FITC autofluorescence indicate MB's utility as an atheroma targeting agent unlike any other. Further, the TBR of MB in FIGS. 6A and 6B illustrates the robustness of the targeting profile of MB.
Moreover, FIGS. 7A-7C show FM images of an axial section of a subject's vessel including a venous thrombus after undergoing vessel injury according to the high inflammation protocol. The subject was injected with a 1 mg/kg MB concentration in a phosphate buffer saline solution 24 hours prior to imaging. […] This again evidences the unique binding pattern that MB may offer for vascular imaging.
MB binding in the aortas of the subjects was also evaluated using traditional histological stains. A tissue cross-section fluorescently imaged to evaluate MB uptake was further treated with a hemotoxylin and eosin (H&E) stain. […] Even less cellular areas were also found to have MB uptake.
Finally, the cross-section was imaged using immunohistochemical-staining techniques. The immunohistochemical stain RAM11 which is a known macrophage marker was used to cross-correlate the MB binding images. […] These areas where not limited to a specific location. For example, one area of consistent MB and RAM11 co-localization was located near the luminal side of internal elastic lamina as well as other regions of the atheroma.

The conditions of series [1]: phosphate buffer saline solution; cited from earlier work.
For series [2] the following is noted: healthy human volunteers, intravenous (Peter et al. 2000); cited from earlier work.
The nature of series [3]: Half-life of MB in rabbit bloodstream from fluorescence intensity over time. Format: in vivo. To be noted: blood, intravenous, 1 mg/kg. The procedure:
The methylene blue (MB) binding and uptake was evaluated in a rabbit model of atherosclerosis of the abdominal aorta. […] The half-life for MB in rabbit bloodstreams was measured in two subjects, m463 and m464 that had been subjected to a high cholesterol diet and the high inflammation protocol.

On to `CC1(C)C(/C=C/C=C/C=C/C=C2\N(CCCCS(=O)(=O)O)c3ccc4ccccc4c3C2(C)C)=[N+](CCCCS(=O)(=O)[O-])c2ccc3ccccc3c21` [ICG, Indocyanine green], for which, in the series on atheroma, the “co-localization in atherosclerotic zones by FRI” value was “co-localization of MB and ICG in the atherosclerotic zones of the aorta”.
Regarding `CN(C)c1ccc2nc3ccc(N(C)C)cc3[s+]c2c1.[Cl-]` [MB, [7-(dimethylamino)phenothiazin-3-ylidene]-dimethylazanium chloride], the “targeting to atheroma in FM image of aortic cross-section” value with atherosclerotic lesions (1 mg/kg i.v. 24 hours before imaging, NIRF absent from normal arterial wall) is “highly targeted to the atheroma”. In addition, the “uptake in vessel with venous thrombus (FM)” value in the series on atherosclerotic lesions (1 mg/kg in phosphate buffer saline 24 hours prior to imaging) is “distinct spots or drops along the inner vessel walls and in the venous thrombus”. Also, in the series with atherosclerotic lesions (aortic cross-section), the “association of uptake with macrophages (RAM11 staining)” value is “associated with areas positive for macrophages in the RAM11 staining”. The “depth of binding in lesions (H&E histology)” value in the series with atherosclerotic lesions (aortic cross-section) was “seen in specific regions permeating the entire depth of the lesions”. For the same compound, the “localization of uptake by high-resolution epifluorescence microscopy” value with atherosclerotic lesions (fresh-frozen tissue cross-sections) was “localize in both microscopic lesions and atherosclerotic lesions with greater than 60% stenosis”. Also, the molar attenuation coefficient in series [1] is 73,000 cm^−1/M. The quantum yield in series [1] is on record as 5.3%. The quenching threshold in series [1] was 12.5 µM. Moreover, the “deposition in plaques detected by NIRF imaging” value in the series on atheroma (1 mg/kg intravenous, rabbit atherosclerosis model) was “can produce deposition of MB in plaques of rabbits”. In the series on atheroma, the “co-localization in atherosclerotic zones by FRI” value was “co-localization of MB and ICG in the atherosclerotic zones of the aorta”. Also, in the series with atheroma (MB 1 mg/kg i.v. 24 hours before imaging, versus aortas without MB, FRI), the “target-to-background ratios (TBRs) of aortas” value was “higher TBRs than those without MB”. Moreover, the blood half-life in series [2] is 5.25 h. Further, the half-life in series [3] (1 phase exponential decay of fluorescence intensity, read-out: half-life of MB in bloodstream (converted)) was 7.35 h; in series [3] (mean of m463 and m464, read-out: average of the MB half-life in the rabbits tested (converted)) it was around 5.25 h; in series [3] (rabbit subject m463, 1 phase exponential decay of fluorescence intensity, read-out: half-life of MB in bloodstream (converted)) it was 3.13 h; in series [3] (rabbit subject m463, read-out: half-life of MB in bloodstream (converted)), around 3 h; in series [3] (read-out: half-life of MB in bloodstream (converted)), around 7.4 h.
